# Laboratory results reported in patent US20250025451A1, “TREATMENT OF CANCER WITH KDM4 INHIBITORS” (Celgene Corporation, priority 2021, published 2025).
# Like-named read-outs stand apart in the source and are kept apart here.
# What was measured:
# [1] = tested on: SU103 patient-derived colon cancer organoid model; assay: organoid colony formation assay, SU103; format: cell-based, human
# Experimental: (§1) The IC50 values for Compound 1 inhibition of colony formation and viability were determined for the patient-derived colon cancer organoid models: SU60, T002C, SU62, SU34, SU103, T03SC, and SU106, patient-derived pancreatic cancer organoid models PA016SF, PA0143F, T016P, and T028P, and a patient-derived breast cancer organoid model FS5S3.
# (§2) Colony formation and viability assays were performed in multiwell plates seeded with organoids using an in vitro culture system composed of a Matrigel layer, media containing a defined set of growth factors, and co-culture with Wnt3 A-secreting mouse embryonic fibroblasts. Assays were initiated by adding either DMSO as a negative control, or an inhibitor panobinostatat 100×IC50 concentration as a positive control, or serially diluted Compound 1. The cultures were incubated for 168 or 144 hours after which the number of viable organoids in each test well was assessed respectively using one of two detection methods: CTG or staining with calcein-AM followed by imaging and colony counting. Colony count or viability of cells treated with compound 1 was expressed as a percent of the negative control. Aggregated Percent of Control values were plotted against the corresponding Compound 1 concentration and the absolute IC50 value was determined from a non-linear regression curve as the concentration where inhibition was 50% of the control.
# [2] = tested on: PA0165F patient-derived pancreatic cancer organoid model; assay: organoid colony formation and viability assay, PA0165F; format: cell-based, human
# Experimental: as §1, §2
# [3] = tested on: OCI-LY19 human diffuse large B-cell non-Hodgkin's lymphoma xenograft; format: in vivo; settings: for Median Tumor Volume Diff.: Day 21 minus Day 0
# Experimental: The therapeutic in vivo efficacy of Compound 1 was evaluated in SU60 colorectal cancer, KYSE-150 esophageal cancer, COH70 triple-negative breast cancer, GXA-3036 gastric adenocarcinoma and OCI-LY19 Diffuse Large B-Cell Non-Hodgkin's Lymphoma xenograft models. In all studies, efficacy was determined based on percent tumor growth inhibition (TGI), differences in mean tumor growth, and statistical assessment of differences in net tumor volume distributions on the day of TGI analysis between control and treated animals. Tolerability was assessed based on differences in mean body weights between control and treated animals over the course of the study.
# The in vivo efficacy and tolerability of Compound 1, administered orally as the lysine salt form suspended in a 0.5% MC vehicle, were evaluated in female C.B-17 severe combined immunodeficient (scid) mice inoculated subcutaneously with OCI-LY19 tumor cells established from the bone marrow of a patient with diffuse large B-cell non-Hodgkin's lymphoma (DLBCL), stage 4B, at relapse. Each mouse was inoculated subcutaneously in the right flank with 5×10^6 OCI-LY19 tumor cells (0.1 ml) suspended in 50% Matrigel. When the average tumor size reached ˜165 mm3, test animals were randomized into 6 groups consisting of 8 mice per group and treatments were initiated. […] Compound 1-treated mice received the Compound 1 lysine salt form suspended in vehicle at 5, 15, or 50 mg/kg QD or at 25 mg/kg BID on the 3 on/4 off schedule. TGI was determined on Day 21 as (1−Difftreated/Diffcontrol)×100. Individual tumors were measured on the days shown in two dimensions using a caliper, and the tumor volumes (TV) in mm3 were calculated using the formula: TV=0.5 a×b2, where a and b are the long and short tumor diameters in mm, respectively. Mean tumor volumes±SEM were calculated and plotted versus days of dosing (FIG. 15 left panel). Body weights were measured twice weekly. Body weights±SEM were calculated and plotted versus days of dosing (FIG. 15 right panel). The difference in mean net tumor volumes on the day of TGI analysis for treated versus control animals was evaluated statistically using one-way ANOVA followed by Dunnett's multiple comparisons test; Adjusted p-values are shown where a calculated probability (p)≤0.05 was considered statistically significant.
# [4] = tested on: tumor initiating cells of SU60 xenograft tumors; assay: functional in vivo tumorigenicity assay (limiting dilution assay); set-up: species or system mice
# Experimental: The ability of Compound 1 to affect tumorigenic potential was analyzed by flow cytometry analysis of the tumorigenic cell population and functional in vivo tumorigenicity assay (limiting dilution assay).
# To assess the effect of Compound 1 on tumorigenic cell population, Compound 1 was used to treat SU60 xenograft tumors. NSG female mice engrafted with SU60 cells (7 mice each group) were administered Compound 1 at 40 mg/kg PO QD×21. The day after the last dose, three tumors nearest to the mean size from each group were dissociated and the single cells were used to perform: 1) flow cytometry analysis of the tumorigenic cell population and 2) functional in vivo tumorigenicity assay (limiting dilution assay). Flow Cytometry Analysis of Tumorigenic Cell Population after Compound 1 Treatment
# To study the effect of Compound 1 on tumor initiating cell (TIC) frequency in CRC tumors, we evaluated the tumorigenic potential of SU60 xenograft cells posttreatment with Compound 1 or vehicle. At the end of dosing, SU60 dissociated cells from three animals per group nearest to the mean size were injected in a limiting dilution manner into recipient NSG mice and tumor volumes were measured. The number of cells required for tumor formation was reduced in the Compound 1-treated group. The reduction in TIC frequency was 4.4-fold (FIG. 17 and Table 10). Differentiation of progenitor cells is a potential explanation for this reduction.
# [5] = tested on: gene expression (PNUTS, ANK1, IBA57, SOWAHD, MF12-AS1, CECR1); assay: RNA-seq analysis of pharmacodynamic biomarkers in diffuse large B-Cell Lymphoma xenografts; format: in vivo
# Source text: RNA-seq and ChIP-seq analyses were employed to identify potential clinical pharmacodynamic (PD) biomarkers as molecular indicators for monitoring the effects of treatment with Compound 1.
# […] In the ChIP-seq analysis, 65 genes were identified to show direct KDM4C promoter occupancy.
# KDM4 = assay: biochemical activities (KDM4 inhibition); settings: KDM4 isoforms, FIG. 1
# [6] = SU60 cells from tumors treated 40 mg/kg QD, injected into recipient NSG mice, 50 cells
# [7] = SU60 cells from tumors treated 40 mg/kg QD, injected into recipient NSG mice, 500 cells
# [8] = SU60 cells from tumors treated 40 mg/kg QD, injected into recipient NSG mice, 1000 cells
# [9] = in vivo at 2.5, 5, 7.5, 15 and 50 mg/kg, dose-dependent
structure (smiles),measurement,setting,value
"CC(C)c1ccc(N(C)c2ccc3c(c2)OCC[C@H]3CNc2cnccc2C(=O)O)cc1 [Compound 1, 3-({[(4R)-7-{methyl[4-(propan-2-yl)phenyl]amino}-3,4-dihydro-2H-1-benzopyran-4-yl]methyl}amino)pyridine-4-carboxylic acid]",IC50,"[1]; Homo sapiens, SU103 colorectal carcinoma model",> 10000 nM
same,IC50,"[1]; SU103 human colorectal carcinoma organoid, 144 hrs, Colony Counts",> 10000 nM
same,IC50,"[2]; Homo sapiens, PA0165F pancreatic carcinoma model",< 30 nM
same,IC50,"[2]; PA0165F human pancreatic carcinoma organoid, 144 hrs, Colony Counts",16 nM
same,IC50,"[2]; PA0165F human pancreatic carcinoma organoid, 168 hrs, CTG",29 nM
same,% TGI,"[3]; 5 mg/kg PO QD 3 on/4 off, Day 21, 5 mg/kg",55%
same,Median Tumor Volume Diff.,[3]; 5 mg/kg PO QD 3 on/4 off,920 mm^3
same,% TGI,"[3]; 15 mg/kg PO QD 3 on/4 off, Day 21, 15 mg/kg",83%
same,Median Tumor Volume Diff.,[3]; 15 mg/kg PO QD 3 on/4 off,345 mm^3
same,% TGI,"[3]; 25 mg/kg PO BID 3 on/4 off, Day 21, 25 mg/kg",102%
same,Median Tumor Volume Diff.,[3]; 25 mg/kg PO BID 3 on/4 off,−32 mm^3
same,% TGI,"[3]; 50 mg/kg PO QD 3 on/4 off, Day 21, 50 mg/kg",90%
same,Median Tumor Volume Diff.,[3]; 50 mg/kg PO QD 3 on/4 off,196 mm^3
same,tolerability (mean body weights),"[3]; female C.B-17 scid mice, all Compound 1 regimens",well-tolerated
same,Median Tumor Volume Day 21,"[3]; female C.B-17 scid mice, lysine salt 5 mg/kg PO QD 3 on/4 off",1088 mm^3
same,Median Tumor Volume Day 21,"[3]; female C.B-17 scid mice, lysine salt 15 mg/kg PO QD 3 on/4 off",512 mm^3
same,Median Tumor Volume Day 21,"[3]; female C.B-17 scid mice, lysine salt 25 mg/kg (free acid equivalents) PO BID 3 on/4 off",135 mm^3
same,Median Tumor Volume Day 21,"[3]; female C.B-17 scid mice, lysine salt 50 mg/kg PO QD 3 on/4 off",361 mm^3
same,Mean Tumor Volume (50 cells),[4]; [6],209 mm^3
same,Tumor Take Rate (50 cells),[4]; [6],3/10
same,Mean Tumor volume (500 cells),[4]; [7],589 mm^3
same,Tumor Take Rate (500 cells),[4]; [7],5/10
same,Mean Tumor Volume (1000 cells),[4]; [8],830 mm^3
same,Tumor Take Rate (1000 cells),[4]; [8],7/10
same,reduction in TIC frequency,"[4]; SU60 xenograft, 40 mg/kg PO QD x21, vs vehicle",4.4 fold
same,number of genes up- or downregulated ≥2-fold,"[5]; RNA-seq, 37.3 mg/kg, diffuse large B-Cell Lymphoma xenografts models",326
same,"change of PNUTS, ANK1, and IBA57 gene expression",[5]; [9],downregulated
same,"change of SOWAHD, MF12-AS1, and CECR1 gene expression",[5]; [9],upregulated
same,biochemical activities,KDM4,potent PAN KDM4 inhibitor
